Laboratory results: patent US20040097594A1 (priority 1998, published 2004)

Tests used:
[1] = molecular target: HIV-1 protease (Human immunodeficiency virus type 1 group M subtype B, UniProt P04585); experiment: biochemical; conditions: HIV-1 protease; upper line of each compound's entry; read-out: Ki (enzyme)
[2] = system: HIV-1 (strain IIIB); experiment: microbe, parasite or virus in culture; format: cell-based; conditions: Human immunodeficiency virus 1, 120 h; MT4 cells infected with HIV-1 strain IIIB, 5 days; lower line of each compound's entry; read-out: IC50 (MT-4 cells)

Structure (SMILES)	Ki [1] [µM]	IC50 [2] [µM]
O=C(NC(Cc1ccccc1)C(O)CN(OC1CCCC1)S(=O)(=O)c1cccc(NCC(=O)N2CCOCC2)c1)OC1COC2OCCC12 [Compound 87, (3R,3aS,6aR)hexahydrofuro[2,3-b]furan-3-yl N-(1S,2R)-1-benzyl-3-[(cyclopentyloxy)(3-[(2-morpholino-2-oxoethyl)amino]phenylsulfonyl)amino]-2-hydroxypropylcarbamate and (3S,3aR,6aS)hexahydrofuro[2,3-b]furan-3-yl N-(1S,2R)-1-benzyl-3-[(cyclopentyloxy)(3-[(2-morpholino-2-oxoethyl)amino]phenylsulfonyl)amino]-2-hydroxypropylcarbamate]	< 0.001	≤ 0.1
O=C(N[C@@H](Cc1ccccc1)[C@@H](CN(OC1CCCC1)S(=O)(=O)c1ccc2c(c1)OCO2)OP(=O)(O)O)O[C@H]1CO[C@H]2OCC[C@H]21 [Compound 143, (3R,3aS,6aR)hexahydrofuro[2,3-b]furan-3-yl N-[(1S,2R)-3-[(1,3-benzodioxol-5-ylsulfonyl)(cyclopentyloxy)amino]-1-benzyl-2-(phosphonooxy)propyl]carbamate]	< 0.001	≤ 0.1
CC(C)(C)OC(=O)N[C@@H](Cc1ccccc1)[C@H](O)CN(OC1CCCC1)S(=O)(=O)c1ccc2[nH]c(=O)[nH]c2c1 [Compound 131, tert-Butyl-N-((1S,2R)-1-benzyl-3-(cyclopentyloxy)(2-oxybenzimidazol-5-ylsulfonyl)amino-2-hydroxypropyl)carbamate]	< 0.001	≤ 0.1
O=C(N[C@@H](Cc1ccccc1)[C@H](O)CN(OC1CCCCC1)S(=O)(=O)c1ccc(O)cc1)O[C@H]1CO[C@H]2OCC[C@H]21 [Example 160, (3R,3aS,6aR)hexahydrofuro[2,3-b]furan-3-yl(1S,2R)-1-benzyl-3-{(cyclohexyloxy)[(4-hydroxyphenyl)sulfonyl]amino}-2-hydroxypropylcarbamate]	< 0.001	≤ 0.1
CN(C)C(=O)Nc1nc2cc(S(=O)(=O)N(C[C@@H](O)[C@H](Cc3ccccc3)NC(=O)OC(C)(C)C)OC3CCCC3)ccc2[nH]1 [Compound 14, Tert-butyl N-(1S,2R)-1-benzyl-3-[(cyclopentyloxy)(2-[(dimethylamino-carbonyl)amino]-1H-benzimidazol-5-ylsulfonyl)amino]-2-hydroxypropylcarbamate]	< 0.001	0.1 to 0.5
CS(=O)(=O)Nc1nc2cc(S(=O)(=O)N(C[C@@H](O)[C@H](Cc3ccccc3)NC(=O)O[C@@H]3CO[C@@H]4OCC[C@@H]43)OC3CCCC3)ccc2[nH]1 [Compound 39, (3S,3aR,6aS)Hexahydrofuro[2,3-b]furan-3-yl-N-((1S,2R)-1-benzyl-3-(cyclopentyloxy)(2-[(methylsulfonyl)amino]benzimidazol-5-ylsulfonyl)amino-2-hydroxypropyl)carbamate]	< 0.001	0.1 to 0.5
CC(C)(C)OC(=O)N[C@@H](Cc1ccccc1)[C@H](O)CN(OC1CCCC1)S(=O)(=O)c1ccc2[nH]c(NC(=O)CCCl)nc2c1 [Compound 105, Tert-butyl N-(1S,2R)-1-benzyl-3-[(cyclopentyloxy)(2-[(3-chloropropionyl)amino]-1H-benzimidazol-5-ylsulfonyl)amino]-2-hydroxypropylcarbamate]	< 0.001	≤ 0.1
